Experimental findings from US20260007681A1, “INDOLE DERIVATIVES AS ESTROGEN RECEPTOR DEGRADERS” (REGENTS OF THE UNIVERSITY OF MICHIGAN, priority 2022, published 2026) are described below.

The structures appear in SMILES notation.

CRBN/DDB1, sequence (Q96SW2 whole entry): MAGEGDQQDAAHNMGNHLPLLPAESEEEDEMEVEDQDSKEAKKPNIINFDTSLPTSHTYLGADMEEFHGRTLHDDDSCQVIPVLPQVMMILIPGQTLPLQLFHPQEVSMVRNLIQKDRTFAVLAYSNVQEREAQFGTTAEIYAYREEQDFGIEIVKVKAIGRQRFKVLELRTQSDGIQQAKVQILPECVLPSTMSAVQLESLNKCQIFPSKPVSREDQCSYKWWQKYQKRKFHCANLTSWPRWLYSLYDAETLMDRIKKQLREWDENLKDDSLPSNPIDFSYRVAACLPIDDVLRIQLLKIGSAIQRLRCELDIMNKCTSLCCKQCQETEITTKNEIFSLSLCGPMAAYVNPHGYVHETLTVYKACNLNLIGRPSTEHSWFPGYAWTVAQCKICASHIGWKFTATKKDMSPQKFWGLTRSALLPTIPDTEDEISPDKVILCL
CRBN/DDB1, sequence (Q16531 whole entry partner): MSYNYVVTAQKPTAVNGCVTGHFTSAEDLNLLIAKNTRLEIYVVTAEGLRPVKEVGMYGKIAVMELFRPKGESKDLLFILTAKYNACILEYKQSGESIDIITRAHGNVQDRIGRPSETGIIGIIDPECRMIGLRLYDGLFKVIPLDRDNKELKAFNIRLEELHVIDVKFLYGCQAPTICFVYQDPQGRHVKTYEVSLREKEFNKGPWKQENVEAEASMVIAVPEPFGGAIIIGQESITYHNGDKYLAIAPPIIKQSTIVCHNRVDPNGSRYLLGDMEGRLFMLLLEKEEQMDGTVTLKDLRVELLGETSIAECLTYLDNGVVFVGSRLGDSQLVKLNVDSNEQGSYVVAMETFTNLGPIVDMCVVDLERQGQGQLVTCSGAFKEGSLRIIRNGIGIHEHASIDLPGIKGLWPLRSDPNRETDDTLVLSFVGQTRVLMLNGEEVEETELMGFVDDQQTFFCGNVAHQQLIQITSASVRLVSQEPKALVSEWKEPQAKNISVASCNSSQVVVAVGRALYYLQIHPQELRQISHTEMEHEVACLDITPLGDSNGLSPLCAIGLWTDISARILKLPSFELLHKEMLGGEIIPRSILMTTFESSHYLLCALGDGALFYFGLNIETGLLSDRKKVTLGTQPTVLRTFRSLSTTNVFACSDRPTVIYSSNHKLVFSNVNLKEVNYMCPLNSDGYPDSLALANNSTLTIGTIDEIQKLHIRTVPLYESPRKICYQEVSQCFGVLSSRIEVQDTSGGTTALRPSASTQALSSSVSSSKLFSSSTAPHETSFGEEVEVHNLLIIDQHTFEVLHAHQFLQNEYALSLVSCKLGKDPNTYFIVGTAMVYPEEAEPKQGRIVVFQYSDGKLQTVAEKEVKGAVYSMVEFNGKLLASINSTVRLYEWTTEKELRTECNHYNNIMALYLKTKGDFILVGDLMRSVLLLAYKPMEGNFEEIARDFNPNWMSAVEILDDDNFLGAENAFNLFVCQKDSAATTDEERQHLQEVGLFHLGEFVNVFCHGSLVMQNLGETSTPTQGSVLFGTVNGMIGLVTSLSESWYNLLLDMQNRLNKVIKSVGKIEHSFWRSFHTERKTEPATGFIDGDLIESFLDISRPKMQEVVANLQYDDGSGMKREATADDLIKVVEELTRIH

The target in the test is CRBN/DDB1 (Homo sapiens (Human), UniProt Q96SW2). It is filed as binding. The following applies: His tagged CRBN+DDB-DLS7+CXU4, Cy5-labeled Thalidomide probe, one hour incubation; read-out: CRBN HTRF IC50. On the procedure:
The binding potency was determined using H-TRF assay technology (Perkin Elmer). Compounds were serially diluted in DMSO and 0.2 μL volume was transferred to white 384-well plate.
`C[C@@H]1Cc2c([nH]c3ccccc23)[C@@H](c2cnc(N3CCC(N4CCC(c5ccc(NC6CCC(=O)NC6=O)cc5F)CC4)CC3)nc2)N1CC(F)F` (stereo partly drawn) [Compound A3, 3-((4-(1′-(5-((1R,3R)-2-(2,2-difluoroethyl)-3-methyl-2,3,4,9-tetrahydro-1H-pyrido[3,4-b]indol-1-yl)pyrimidin-2-yl)-[1,4′-bipiperidin]-4-yl)-3-fluorophenyl)amino)piperidine-2,6-dione]: the IC50 (as a rule, the point on the concentration scale where inhibition reaches its midpoint) lay within 50 to 500 nM.
Under `C[C@@H]1Cc2c([nH]c3ccccc23)[C@@H](c2cnc(N3C[C@@H]4[C@@H](CN5CCN6c7cc8c(cc7OC[C@@H]6C5)C(=O)N(C5CCC(=O)NC5=O)C8)[C@@H]4C3)nc2)N1CC(F)F` (stereo partly drawn) [Compound A4, (S)-3-((S)-3-(((1R,5S,6S)-3-(5-((1R,3R)-2-(2,2-difluoroethyl)-3-methyl-2,3,4,9-tetrahydro-1H-pyrido[3,4-b]indol-1-yl)pyrimidin-2-yl)-3-azabicyclo[3.1.0]hexan-6-yl)methyl)-8-oxo-1,2,3,4,4a,5,8,10-octahydro-9H-pyrazino[1′,2′:4,5][1,4]oxazino[2,3-f]isoindol-9-yl)piperidine-2,6-dione] stands 500 to 5000 nM.
Regarding `C[C@@H]1Cc2c([nH]c3ccccc23)[C@@H](c2cnc(N3CCC4(CC3)CC(CN3CCN5c6ccc7c(c6OC[C@@H]5C3)CN(C3CCC(=O)NC3=O)C7=O)C4)nc2)N1CC(F)F` (stereo partly drawn) [Compound A6, 3-((S)-7-((7-(5-((1R,3R)-2-(2,2-difluoroethyl)-3-methyl-2,3,4,9-tetrahydro-1H-pyrido[3,4-b]indol-1-yl)pyrimidin-2-yl)-7-azaspiro[3.5]nonan-2-yl)methyl)-1-oxo-1,3,5,5a,6,7,8,9-octahydro-2H-pyrazino[1′,2′:4,5][1,4]oxazino[2,3-e]isoindol-2-yl)piperidine-2,6-dione], the IC50 was under 50 nM.
Under `COc1ccc(C(=O)N2CCC(CN3CCN(c4ncc([C@@H]5c6[nH]c7ccccc7c6C[C@@H](C)N5CC(F)F)cn4)CC3)CC2)cc1N1CCC(=O)NC1=O` [Compound A7, 1-(5-(4-((4-(5-((1R,3R)-2-(2,2-difluoroethyl)-3-methyl-2,3,4,9-tetrahydro-1H-pyrido[3,4-b]indol-1-yl)pyrimidin-2-yl)piperazin-1-yl)methyl)piperidine-1-carbonyl)-2-methoxyphenyl) dihydropyrimidine-2,4(1H,3H)-dione] stands 500 to 5000 nM; under `CS(=O)(=O)N1CCc2c([nH]c3ccccc23)[C@H]1c1c(F)cc(N2CCC3(CCN(C(=O)CN4Cc5cc6c(cc5C4)C(=O)N(C4CCC(=O)NC4=O)C6=O)CC3)CC2)cc1F` (stereo partly drawn) [Compound A8, 6-(2-(9-(3,5-difluoro-4-((R)-2-(methylsulfonyl)-2,3,4,9-tetrahydro-1H-pyrido[3,4-b]indol-1-yl)phenyl)-3,9-diazaspiro[5.5]undecan-3-yl)-2-oxoethyl)-2-(2,6-dioxopiperidin-3-yl)-6,7-dihydropyrrolo[3,4-f]isoindole-1,3(2H,5H)-dione], over 5000 nM; under `C[C@@H]1Cc2c([nH]c3ccccc23)[C@@H](c2cnc(N3C[C@@H]4[C@H](CN5CCN6c7cc8c(cc7OC[C@@H]6C5)C(=O)N([C@H]5CCC(=O)NC5=O)C8)[C@@H]4C3)nc2)N1CC(C)(C)F` [Compound A13, (S)-3-((S)-3-(((1R,5S,6R)-3-(5-((1R,3R)-2-(2-fluoro-2-methylpropyl)-3-methyl-2,3,4,9-tetrahydro-1H-pyrido[3,4-b]indol-1-yl)pyrimidin-2-yl)-3-azabicyclo[3.1.0]hexan-6-yl)methyl)-8-oxo-1,2,3,4,4a,5,8,10-octahydro-9H-pyrazino[1′,2′:4,5][1,4]oxazino[2,3-f]isoindol-9-yl)piperidine-2,6-dione], 50 to 500 nM.
Under `C[C@@H]1Cc2c([nH]c3ccccc23)[C@@H](c2cnc(N3CC[C@@H](CN4CCN5c6ccc7c(c6OC[C@@H]5C4)CN(C4CCC(=O)NC4=O)C7=O)C3)nc2)N1CC(F)F` (stereo partly drawn) [Compound A14, 3-((S)-7-(((S)-1-(5-((1R,3R)-2-(2,2-difluoroethyl)-3-methyl-2,3,4,9-tetrahydro-1H-pyrido[3,4-b]indol-1-yl)pyrimidin-2-yl)pyrrolidin-3-yl)methyl)-1-oxo-1,3,5,5a,6,7,8,9-octahydro-2H-pyrazino[1′,2′:4,5][1,4]oxazino[2,3-e]isoindol-2-yl)piperidine-2,6-dione] stands under 50 nM; under `Cc1nn(C2CCC(=O)NC2=O)c2ccc(N3CCN(CC4CC5(CCN(c6ncc([C@@H]7c8[nH]c9ccccc9c8C[C@@H](C)N7CC(C)(C)F)cn6)CC5)C4)CC3)cc12` (stereo partly drawn) [Compound A15, 3-(5-(4-((7-(5-((1R,3R)-2-(2-fluoro-2-methylpropyl)-3-methyl-2,3,4,9-tetrahydro-1H-pyrido[3,4-b]indol-1-yl)pyrimidin-2-yl)-7-azaspiro[3.5]nonan-2-yl)methyl)piperazin-1-yl)-3-methyl-1H-indazol-1-yl)piperidine-2,6-dione], under 50 nM; under `C[C@@H]1Cc2c([nH]c3ccccc23)[C@@H](c2cnc(N3CCC4(CC3)CC(CN3CCN(c5ccc(NC6CCC(=O)NC6=O)cc5F)CC3)C4)nc2)N1CC(F)F` (stereo partly drawn) [Compound A16, 3-((4-(4-((7-(5-((1R,3R)-2-(2,2-difluoroethyl)-3-methyl-2,3,4,9-tetrahydro-1H-pyrido[3,4-b]indol-1-yl)pyrimidin-2-yl)-7-azaspiro[3.5]nonan-2-yl)methyl)piperazin-1-yl)-3-fluorophenyl)amino)piperidine-2,6-dione], 50 to 500 nM.
Regarding `CS(=O)(=O)N1CCc2c([nH]c3ccccc23)[C@H]1c1c(F)cc(N2CCC(CN3CCN4c5cc6c(cc5OC[C@@H]4C3)C(=O)N([C@H]3CCC(=O)NC3=O)C6)CC2)cc1F` [Compound A17, (S)-3-((S)-3-((1-(3,5-difluoro-4-((R)-2-(methylsulfonyl)-2,3,4,9-tetrahydro-1H-pyrido[3,4-b]indol-1-yl)phenyl)piperidin-4-yl)methyl)-8-oxo-1,2,3,4,4a,5,8,10-octahydro-9H-pyrazino[1′,2′:4,5][1,4]oxazino[2,3-f]isoindol-9-yl)piperidine-2,6-dione], the IC50 is over 5000 nM.
With `C[C@@H]1Cc2c([nH]c3ccccc23)[C@@H](c2cnc(OC3CC(C(=O)N4CCC(N5Cc6cc7c(cc6C5)C(=O)N(C5CCC(=O)NC5=O)C7=O)CC4)C3)nc2)N1CC(F)F` (stereo partly drawn) [Compound A18, 6-(1-((1R,3r)-3-((5-((1R,3R)-2-(2,2-difluoroethyl)-3-methyl-2,3,4,9-tetrahydro-1H-pyrido[3,4-b]indol-1-yl)pyrimidin-2-yl)oxy)cyclobutane-1-carbonyl)piperidin-4-yl)-2-(2,6-dioxopiperidin-3-yl)-6,7-dihydropyrrolo[3,4-f]isoindole-1,3(2H,5H)-dione], the IC50 lay in the range of 50 to 500 nM.
Under `CS(=O)(=O)N1CCc2c([nH]c3ccccc23)[C@@H]1c1c(F)cc(N2CCC3(CCN(C(=O)CN4Cc5cc6c(cc5C4)C(=O)N(C4CCC(=O)NC4=O)C6=O)CC3)CC2)cc1F` (stereo partly drawn) [Compound A20, 6-(2-(9-(3,5-difluoro-4-((S)-2-(methylsulfonyl)-2,3,4,9-tetrahydro-1H-pyrido[3,4-b]indol-1-yl)phenyl)-3,9-diazaspiro[5.5]undecan-3-yl)-2-oxoethyl)-2-(2,6-dioxopiperidin-3-yl)-6,7-dihydropyrrolo[3,4-f]isoindole-1,3(2H,5H)-dione] stands over 5000 nM.
